In patent US11377444B2, “Pyridopyrimidine compounds acting as mTORC 1/2 dual inhibitors” (MEDSHINE DISCOVERY INC., priority 2017, dated 2022):

Experiments:
MCF-7 cell = test: Cell proliferation inhibitory activity (Cell-Titer-Glo), MCF-7; assay type: cell-based; conditions: Homo sapiens, MCF7, 72 h; 3 days incubation
From the text: (§1) Experimental Embodiment 2: Evaluation of Cell Proliferation Inhibitory Activity
(§2) Experiment objective: To detect cell proliferation inhibitory activity of the tested compounds.
(§3) Experimental principle: The luciferase in the Cell-Titer-Glo reagent produces oxyluciferin using luciferin, oxygen and ATP as reaction substrates, and releases energy in the form of light. Since the reaction of luciferase requires ATP, the total amount of light generated by the reaction is proportional to the total amount of ATP that reflects cell viability.
(§4) Cell lines: MCF-7 cell line […], HT-29 cell line (ATCC-HTB-38), OE21 (ECACC-96062201), NCI-N87 cell line (ATCC-CRL-5822)
(§5) Cell culture medium: (RPMI 1640 culture medium (Invitrogen #1868546; 10% serum Invitrogen #1804958; L-glutamine 1×, Invitrogen #1830863; dual antibiotic Hyclone #J170012))
(§6) Cell Titer-Glo® Luminescent Cell Viability Assay Kit (Promega #G7573)
(§7) The cells were inoculated in a 384- or 96-well plate with a density of 1000 cells per well and 25 μL per well according to the instructions of the cell inoculating plate. The edge wells were not inoculated with cells, and was supplemented with […].
(§8) (i) The mother solution of the compound was 10 mM, and diluted with DMSO to an initial concentration of 4 mM. The compound was added to the compound mother solution, 9 μL per well.
(§9) (ii) The compound was diluted with ECHO liquid-handling workstation. Each well of the cell plate was added with 125 nL compound. Each well of the cell wells in 2nd column and 23rd column was added with 125 nL DMSO, and each of the PBS wells in 1st column and 24th column was added with 125 nL DMSO.
(§10) (iii) Each well of the cell plate was supplemented with 25 μL culture medium, the final volume in each well of the cell plate was 50 μL, […] 3 times dilution, 10 concentrations, each concentration was duplicated in left and right wells, the final DMSO concentration was 0.25%.
(§11) 2.3. After addition of the compound, centrifugation was performed at 1000 rpm for 1 min, and the cell plate was placed in a 37° C., 5% CO2 incubator for 3 days.
(§12) The cell plate was taken out from the incubator and equilibrated at room temperature for 30 minutes. 25 μL Cell-Titer-Glo reagent was added to each well, shaken for one minute to mix thoroughly, centrifuged at 1000 rpm for 1 minute. After 10 minutes, the plate was read on PerkinElmer Envision with a […] reading time was set at 0.2 second.

HT-29 cell = test: Cell proliferation inhibitory activity (Cell-Titer-Glo), HT-29; assay type: cell-based; conditions: Homo sapiens, HT-29, 72 h, 3 days incubation
From the text: as §1, §2, §3, §4, §5, §6, §7, §8, §9, §10, §11, §12

OE21 cell = test: Cell proliferation inhibitory activity (Cell-Titer-Glo), OE21; assay type: cell-based; conditions: OE21, 72 h; 3 days incubation
From the text: as §1, §2, §3, §4, §5, §6, §7, §8, §9, §10, §11, §12

N87 cell = test: Cell proliferation inhibitory activity (Cell-Titer-Glo), N87; assay type: cell-based; conditions: 72 h; 3 days incubation
From the text: as §1, §2, §3, §4, §5, §6, §7, §8, §9, §10, §11, §12

[1] = target: T1, mTOR kinase (mTORC1 and mTORC2 kinase complex) (Homo sapiens, UniProt P42345); test: In vitro evaluation of mTOR kinase inhibitory activity (DiscoverX ligand-bead competition binding, qPCR readout)
T1 construct: purchased DiscoverX; host or cells: HEK-293
Method in brief: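 Tagged mTOR expressed in HEK-293 cells was combined with streptavidin beads carrying biotinylated ligand and DMSO-dissolved compound, shaken 1 h at room temperature. Beads were washed, then eluted 30 min with […] non-biotin affinity ligand. Kinase in eluate quantified by qPCR.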

Row | IC50 (MCF-7 cell) [nM] | IC50 (HT-29 cell) [nM] | Kd [1] [nM] | SMILES | IC50 (OE21 cell) [nM] | IC50 (N87 cell) [nM]
1 | 95 | 316 |  | CNC(=O)c1cccc(-c2ccc3c(N4CCOC[C@@H]4C)nc(N4CCOC[C@@H]4C)nc3n2)c1 [AZD2014, reference compound] | 148 | 59
2 | 163 | 607 | 0.38 | CNC(=O)c1cccc(-c2ccc3c(N4CCOC[C@@H]4C)nc(N4CCOC5(CCC5)C4)nc3n2)c1 [Embodiment 23] | 257 | 94
3 | 208 |  | 0.3 | C[C@H]1COCCN1c1nc(N2CCOC3(CC3)C2)nc2nc(-c3cccc(C(N)=O)c3)ccc12 [Embodiment 51] |  | 59
